One test deals with P300 (Homo sapiens, UniProt Q09472). The experiment in a line: percentage of inhibition (degradation) of p300 at 10 nM, Tables 2-4. It counts as cell-based. On the set-up: LNCaP or 22RV1 cells that express CBP/P300 proteins were treated with GNE-781 or the bivalent compounds; endogenous in cells; host or cells: LNCaP or 22RV1 (not given). The note with it: p300, 10 nM, read-out: Degradation (10 nM). On the procedure: Cultured cells or tissue chunks were washed with cold PBS once and lysed in cold RIPA buffer supplemented with protease inhibitors and phosphatase inhibitors (Beyotime Biotechnology). The solutions were then incubated at 4° C. for 30 minutes with gentle agitation to fully lyse cells. Cell lysates were centrifuged at 13,000 rpm for 10 minutes at 4° C. and pellets were discarded. Total protein concentrations in the lysates were determined by BCA assays (Beyotime Biotechnology). Cell lysates were mixed with Laemmli loading buffer to 1 X and heated at 99° C. for 5 min. Proteins were resolved on SDS-PAGE and visualized by chemiluminescence. Images were taken by a ChemiDoc MP Imaging system (Bio-Rad). Protein bands were quantitated using the accompanied software provided by Bio-Rad.
Chain of P300 (Q09472 whole entry): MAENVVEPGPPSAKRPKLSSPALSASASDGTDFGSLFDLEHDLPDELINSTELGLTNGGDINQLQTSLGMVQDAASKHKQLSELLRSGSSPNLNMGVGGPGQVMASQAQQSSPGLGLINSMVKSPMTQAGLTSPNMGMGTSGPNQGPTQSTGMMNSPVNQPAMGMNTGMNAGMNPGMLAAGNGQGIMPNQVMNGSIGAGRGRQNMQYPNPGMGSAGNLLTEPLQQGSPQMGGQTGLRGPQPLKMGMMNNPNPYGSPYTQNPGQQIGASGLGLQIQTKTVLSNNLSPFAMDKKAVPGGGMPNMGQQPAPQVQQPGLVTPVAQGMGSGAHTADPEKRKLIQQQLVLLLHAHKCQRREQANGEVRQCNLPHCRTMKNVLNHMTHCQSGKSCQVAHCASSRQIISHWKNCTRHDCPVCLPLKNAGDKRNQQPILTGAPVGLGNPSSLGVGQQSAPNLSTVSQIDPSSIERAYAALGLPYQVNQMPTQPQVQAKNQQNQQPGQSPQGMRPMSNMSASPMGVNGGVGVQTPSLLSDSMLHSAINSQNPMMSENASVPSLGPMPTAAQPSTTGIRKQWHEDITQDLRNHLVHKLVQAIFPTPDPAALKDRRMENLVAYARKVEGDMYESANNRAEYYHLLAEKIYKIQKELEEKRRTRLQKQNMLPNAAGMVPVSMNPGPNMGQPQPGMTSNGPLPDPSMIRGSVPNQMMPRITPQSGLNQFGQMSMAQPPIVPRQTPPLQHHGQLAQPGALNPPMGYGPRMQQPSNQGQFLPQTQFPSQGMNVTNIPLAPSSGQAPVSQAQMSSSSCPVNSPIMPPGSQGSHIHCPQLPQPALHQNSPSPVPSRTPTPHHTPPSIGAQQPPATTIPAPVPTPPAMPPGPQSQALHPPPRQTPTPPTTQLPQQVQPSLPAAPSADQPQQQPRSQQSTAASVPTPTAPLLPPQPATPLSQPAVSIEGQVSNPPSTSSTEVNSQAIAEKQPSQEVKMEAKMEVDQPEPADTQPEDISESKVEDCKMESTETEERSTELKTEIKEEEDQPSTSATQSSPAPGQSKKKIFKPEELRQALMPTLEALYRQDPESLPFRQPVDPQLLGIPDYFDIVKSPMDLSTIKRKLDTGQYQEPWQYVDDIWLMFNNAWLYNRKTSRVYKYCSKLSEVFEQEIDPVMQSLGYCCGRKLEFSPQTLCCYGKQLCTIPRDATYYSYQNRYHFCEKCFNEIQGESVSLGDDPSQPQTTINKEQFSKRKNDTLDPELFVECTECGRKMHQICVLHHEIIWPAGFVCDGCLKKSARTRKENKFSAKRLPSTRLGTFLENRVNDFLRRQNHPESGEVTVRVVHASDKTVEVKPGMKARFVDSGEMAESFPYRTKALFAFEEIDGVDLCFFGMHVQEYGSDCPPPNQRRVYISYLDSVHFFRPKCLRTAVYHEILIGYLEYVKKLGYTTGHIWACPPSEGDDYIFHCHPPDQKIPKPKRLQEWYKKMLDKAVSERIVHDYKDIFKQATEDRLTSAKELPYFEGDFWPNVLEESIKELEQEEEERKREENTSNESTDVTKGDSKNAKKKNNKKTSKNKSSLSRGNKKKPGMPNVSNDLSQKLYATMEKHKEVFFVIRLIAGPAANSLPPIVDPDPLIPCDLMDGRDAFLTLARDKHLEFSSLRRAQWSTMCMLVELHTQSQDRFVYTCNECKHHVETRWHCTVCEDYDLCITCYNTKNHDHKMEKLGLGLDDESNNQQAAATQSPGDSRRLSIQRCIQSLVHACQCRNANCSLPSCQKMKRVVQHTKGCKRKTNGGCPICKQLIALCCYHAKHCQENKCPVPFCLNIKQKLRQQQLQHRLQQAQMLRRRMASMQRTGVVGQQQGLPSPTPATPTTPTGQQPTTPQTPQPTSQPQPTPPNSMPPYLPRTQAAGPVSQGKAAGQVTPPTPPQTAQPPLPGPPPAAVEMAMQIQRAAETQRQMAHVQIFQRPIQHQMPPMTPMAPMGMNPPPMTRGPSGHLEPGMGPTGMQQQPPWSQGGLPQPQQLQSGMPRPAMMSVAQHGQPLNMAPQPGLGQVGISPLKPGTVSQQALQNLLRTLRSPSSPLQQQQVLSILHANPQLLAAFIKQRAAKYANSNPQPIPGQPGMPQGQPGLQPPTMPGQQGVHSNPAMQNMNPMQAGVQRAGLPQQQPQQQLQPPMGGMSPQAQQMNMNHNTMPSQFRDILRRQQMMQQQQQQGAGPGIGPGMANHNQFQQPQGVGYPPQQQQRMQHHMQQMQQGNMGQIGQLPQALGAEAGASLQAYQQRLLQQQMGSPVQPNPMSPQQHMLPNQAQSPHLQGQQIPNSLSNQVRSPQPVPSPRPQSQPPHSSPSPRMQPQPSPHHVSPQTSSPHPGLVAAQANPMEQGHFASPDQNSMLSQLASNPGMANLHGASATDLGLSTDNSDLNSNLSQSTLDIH

In test [1] the test system is LNCaP prostate cancer cell. Description: LNCaP cell viability (CellTiter-Glo). It counts as cell-based. The note with it: Homo sapiens, 72 h, LNCaP cell viability, 3 days, CellTiter-Glo. As for the experimental part:
LNCaP cells seeded in 96-well plates were treated with 10 μM GNE-781 or selected bivalent compounds, i.e. P-001, P-002, and P-019, following a 12-point 3-fold serial dilution. Three days after treatment, cell viability was determined using the CellTiter-Glo kit (Promega) following manufacturer's instructions. Cell viability was normalized to the mean values of 3 replicates of untreated cells. Dose-dependent response was analyzed following the least-squares non-linear regression method using the GraphPad Prism 5.0 software.
LNCaP (clone FGC), 22RV1 and other cells were cultured at 37° C. with 5% CO 2 in RPMI 1640 Medium supplemented with 10% fetal bovine serum. Cells were authenticated using the short tandem repeat (STR) assays. Mycoplasma test results were negative.
Cells were seeded at a density of 5000 cells per well in 96-well assay plates and treated with test compounds following a 12-point 3-fold serial dilution. Three days later, cell viability was determined using the CellTiter-Glo assay kit according to the manufactureR's instructions. The dose-response curves were determined and IC50 values were calculated using the GraphPad Prism software following a nonlinear regression (least squares fit) method.

The values that follow come from patent US20240100170A1, “CYCLIC-AMP RESPONSE ELEMENT BINDING PROTEIN (CBP) AND/OR ADENOVIRAL E1A BINDING PROTEIN OF 300 KDA (P300) DEGRADATION COMPOUNDS AND METHODS OF USE” (CULLGEN (SHANGHAI), INC., priority 2020, published 2024).

Where two headings read alike, the source gives them in different places.

For the molecule `CNC(=O)N1CCc2c(c(N3CCCc4cc(-c5cnn(C)c5)c(C(F)F)cc43)nn2C2CCN(C(=O)CNc3cccc4c3C(=O)N(C3CCC(=O)NC3=O)C4=O)CC2)C1` (centres unmarked) [P-013, 3-(7-(difluoromethyl)-6-(1-methyl-1H-pyrazol-4-yl)-3,4-dihydroquinolin-1(2H)-yl)-1-(1-((2-(2,6-dioxopiperidin-3-yl)-1,3-dioxoisoindolin-4-yl)glycyl)piperidin-4-yl)-N-methyl-1,4,6,7-tetrahydro-5H-pyrazolo[4,3-c]pyridine-5-carboxamide], at P300 (Table 2), the inhibition at 0.01 µM was in the range of 20 to 50%. In general, IC50 refers to the concentration that inhibits the measured activity by half. Low readings indicate higher potency, high ones lower potency. `CNC(=O)N1CCc2c(c(N3CCCc4cc(-c5cnn(C)c5)c(C(F)F)cc43)nn2C2CCN(C(=O)CCOCCC(=O)N[C@H](C(=O)N3C[C@H](O)C[C@H]3C(=O)NCc3ccc(-c4scnc4C)cc3)C(C)(C)C)CC2)C1` [P-065, 3-(7-(difluoromethyl)-6-(1-methyl-1H-pyrazol-4-yl)-3,4-dihydroquinolin-1(2H)-yl)-1-(1-(3-(3-(((S)-1-((2S,4R)-4-hydroxy-2-((4-(4-methylthiazol-5-yl)benzyl)carbamoyl)pyrrolidin-1-yl)-3,3-dimethyl-1-oxobutan-2-yl)amino)-3-oxopropoxy)propanoyl)piperidin-4-yl)-N-methyl-1,4,6,7-tetrahydro-5H-pyrazolo[4,3-c]pyridine-5-carboxamide] displayed a concentration for half-maximal inhibition (IC50) in test [1] (Table 3) of 74.5 nM. For the same molecule, on P300 (Table 3), the inhibition at 0.01 µM is < 20%. With `CC(=O)N1CCc2c(c(N3CCCc4cc(-c5cnn(C)c5)c(C(F)F)cc43)nn2C2CCN(C(=O)CN3CCN(CC#Cc4cccc5c4n(C)c(=O)n5C4CCC(=O)NC4=O)CC3)CC2)C1` (centres unmarked) [P-226, 3-(4-(3-(4-(2-(4-(5-Acetyl-3-(7-(difluoromethyl)-6-(1-methyl-1H-pyrazol-4-yl)-3,4-dihydroquinolin-1(2H)-yl)-4,5,6,7-tetrahydro-1H-pyrazolo[4,3-c]pyridin-1-yl)piperidin-1-yl)-2-oxoethyl)piperazin-1-yl)prop-1-yn-1-yl)-3-methyl-2-oxo-2,3-dihydro-1H-benzo[d]imidazol-1-yl)piperidine-2,6-dione], half-maximal inhibition in test [1] (Table 4) (IC50) required 398 nM.

The molecule `CC(=O)N1CCc2c(c(N3CCCc4cc(-c5cnn(C)c5)c(C(F)F)cc43)nn2C2CCN(CCCCN3CCC(Cn4c(=O)n(C5CCC(=O)NC5=O)c5ccccc54)CC3)CC2)C1` (centres unmarked) [P-236, 3-(3-((1-(4-(4-(5-acetyl-3-(7-(difluoromethyl)-6-(1-methyl-1H-pyrazol-4-yl)-3,4-dihydroquinolin-1(2H)-yl)-4,5,6,7-tetrahydro-1H-pyrazolo[4,3-c]pyridin-1-yl)piperidin-1-yl)butyl)piperidin-4-yl)methyl)-2-oxo-2,3-dihydro-1H-benzo[d]imidazol-1-yl) piperidine-2,6-dione] yielded an IC50 in test [1] (Table 4) of 560 nM. Same read-out and setting: the value for `CC(=O)N1CCc2c(c(N3CCCc4cc(-c5cnn(C)c5)c(C(F)F)cc43)nn2C2CCN(CCCCN3CCN(c4cccc5c4C(=O)N(C4CCC(=O)NC4=O)C5=O)CC3)CC2)C1` (centres unmarked) [P-248, 4-(4-(4-(4-(5-Acetyl-3-(7-(difluoromethyl)-6-(1-methyl-1H-pyrazol-4-yl)-3,4-dihydroquinolin-1(2H)-yl)-4,5,6,7-tetrahydro-1H-pyrazolo[4,3-c]pyridin-1-yl)piperidin-1-yl)butyl)piperazin-1-yl)-2-(2,6-dioxopiperidin-3-yl)isoindoline-1,3-dione] was 241 nM; that for `CC(=O)N1CCc2c(c(N3CCCc4cc(-c5cnn(C)c5)c(C(F)F)cc43)nn2C2CCN(CCN3CCC(COc4cccc5c4n(C)c(=O)n5C4CCC(=O)NC4=O)CC3)CC2)C1` (centres unmarked) [P-255, 3-(4-((1-(2-(4-(5-Acetyl-3-(7-(difluoromethyl)-6-(1-methyl-1H-pyrazol-4-yl)-3,4-dihydroquinolin-1(2H)-yl)-4,5,6,7-tetrahydro-1H-pyrazolo[4,3-c]pyridin-1-yl)piperidin-1-yl)ethyl)piperidin-4-yl)methoxy)-3-methyl-2-oxo-2,3-dihydro-1H-benzo[d]imidazol-1-yl)piperidine-2,6-dione] was > 500 nM. Regarding `CC(=O)N1CCc2c(c(N3CCCc4cc(-c5cnn(C)c5)c(C(F)F)cc43)nn2C2CCN(C(=O)CN3CCN(CC(=O)Nc4cccc(NC5CCC(=O)NC5=O)c4)CC3)CC2)C1` (centres unmarked) [P-257, 2-(4-(2-(4-(5-acetyl-3-(7-(difluoromethyl)-6-(1-methyl-1H-pyrazol-4-yl)-3,4-dihydroquinolin-1(2H)-yl)-4,5,6,7-tetrahydro-1H-pyrazolo[4,3-c]pyridin-1-yl)piperidin-1-yl)-2-oxoethyl)piperazin-1-yl)-N-(3-((2,6-dioxopiperidin-3-yl)amino)phenyl)acetamide], the IC50 in test [1] (Table 4) was > 500 nM. Same read-out and setting: to `CC(=O)N1CCc2c(c(N3CCCc4cc(-c5cnn(C)c5)c(C(F)F)cc43)nn2C2CCN(C(=O)CCN3CCN(CC(=O)Nc4cccc(NC5CCC(=O)NC5=O)c4)CC3)CC2)C1` (centres unmarked) [P-258, 2-(4-(3-(4-(5-acetyl-3-(7-(difluoromethyl)-6-(1-methyl-1H-pyrazol-4-yl)-3,4-dihydroquinolin-1(2H)-yl)-4,5,6,7-tetrahydro-1H-pyrazolo[4,3-c]pyridin-1-yl)piperidin-1-yl)-3-oxopropyl)piperazin-1-yl)-N-(3-((2,6-dioxopiperidin-3-yl)amino)phenyl)acetamide] belongs > 500 nM. On the same count and under the same terms, the value for `CC(=O)N1CCc2c(c(N3CCCc4cc(-c5cnn(C)c5)c(C(F)F)cc43)nn2C2CCN(C(=O)CCCN3CCN(CC(=O)Nc4cccc(NC5CCC(=O)NC5=O)c4)CC3)CC2)C1` (centres unmarked) [P-259, 2-(4-(4-(4-(5-acetyl-3-(7-(difluoromethyl)-6-(1-methyl-1H-pyrazol-4-yl)-3,4-dihydroquinolin-1(2H)-yl)-4,5,6,7-tetrahydro-1H-pyrazolo[4,3-c]pyridin-1-yl)piperidin-1-yl)-4-oxobutyl)piperazin-1-yl)-N-(3-((2,6-dioxopiperidin-3-yl)amino)phenyl)acetamide] was > 500 nM; that for `CC(=O)N1CCc2c(c(N3CCCc4cc(-c5cnn(C)c5)c(C(F)F)cc43)nn2C2CCN(C(=O)CC3CCN(CC(=O)Nc4cccc(NC5CCC(=O)NC5=O)c4)CC3)CC2)C1` (centres unmarked) [P-260, 2-(4-(2-(4-(5-acetyl-3-(7-(difluoromethyl)-6-(1-methyl-1H-pyrazol-4-yl)-3,4-dihydroquinolin-1(2H)-yl)-4,5,6,7-tetrahydro-1H-pyrazolo[4,3-c]pyridin-1-yl)piperidin-1-yl)-2-oxoethyl)piperidin-1-yl)-N-(3-((2,6-dioxopiperidin-3-yl)amino)phenyl)acetamide] was > 500 nM; that for `CC(=O)N1CCc2c(c(N3CCCc4cc(-c5cnn(C)c5)c(C(F)F)cc43)nn2C2CCN(C(=O)CCC3CCN(CC(=O)Nc4cccc(NC5CCC(=O)NC5=O)c4)CC3)CC2)C1` (centres unmarked) [P-261, 2-(4-(3-(4-(5-acetyl-3-(7-(difluoromethyl)-6-(1-methyl-1H-pyrazol-4-yl)-3,4-dihydroquinolin-1(2H)-yl)-4,5,6,7-tetrahydro-1H-pyrazolo[4,3-c]pyridin-1-yl)piperidin-1-yl)-3-oxopropyl)piperidin-1-yl)-N-(3-((2,6-dioxopiperidin-3-yl)amino)phenyl)acetamide] was > 500 nM. Same read-out and setting: the value for `CC(=O)N1CCc2c(c(N3CCCc4cc(-c5cnn(C)c5)c(C(F)F)cc43)nn2C2CCN(C(=O)CCCC3CCN(CC(=O)Nc4cccc(NC5CCC(=O)NC5=O)c4)CC3)CC2)C1` (centres unmarked) [P-262, 2-(4-(4-(4-(5-Acetyl-3-(7-(difluoromethyl)-6-(1-methyl-1H-pyrazol-4-yl)-3,4-dihydroquinolin-1(2H)-yl)-4,5,6,7-tetrahydro-1H-pyrazolo[4,3-c]pyridin-1-yl)piperidin-1-yl)-4-oxobutyl)piperidin-1-yl)-N-(3-((2,6-dioxopiperidin-3-yl)amino)phenyl)acetamide] was > 500 nM. As to `CC(=O)N1CCc2c(c(N3CCCc4cc(-c5cnn(C)c5)c(C(F)F)cc43)nn2C2CCN(C(=O)CCCCCCCC(=O)Nc3cccc(NC4CCC(=O)NC4=O)c3)CC2)C1` (centres unmarked) [P-263, 9-(4-(5-Acetyl-3-(7-(difluoromethyl)-6-(1-methyl-1H-pyrazol-4-yl)-3,4-dihydroquinolin-1(2H)-yl)-4,5,6,7-tetrahydro-1H-pyrazolo[4,3-c]pyridin-1-yl)piperidin-1-yl)-N-(3-((2,6-dioxopiperidin-3-yl)amino)phenyl)-9-oxononanamide], in test [1] (Table 4), the 50% inhibitory concentration (IC50) was > 500 nM.
